Source: patent US20250376490A1, “C[…]-DERIVED PEPTIDE-NUCLEIC ACID HYBRID MOLECULE FOR TREATING INFECTION CAUSED BY MUTATED CORONAVIRUS” (priority 2022, published 2025)

Legend:
[1] = biological target: RBD-hACE2 binding (Severe acute respiratory syndrome coronavirus 2, UniProt P0DTC2); settings: 3 μM concentration
[2] = system: pseudotype SARS-COV-2; format: cell-based
[3] = biological target: SARS-COV-2 RBD (Severe acute respiratory syndrome coronavirus 2, UniProt P0DTC2); settings: co-incubation with P05DHu and AM 122 antibodies
Procedure: Specifically, after thermal denaturation and rapid cooling, they were co-incubated with 5 nM RBD beads (final volume: 100 μL) with gentle rotation for 1 hour at room temperature. Beads were washed three times, and resuspended in 100 μL of 1× PBSMT for analysis with CytoFLEX S (Beckman Coulter). The competitive RBD-binding fraction was calculated as the ratio of the competitive mean fluorescence intensity to the uncompetitive (free-binding) mean fluorescence intensity.

| Substance | inhibition of RBD-hACE2 interaction [1] | infection rate with pseudotype SARS-COV-2 (percentage of GFP-expressing infected cells) [2] | RBD binding competition between R7-02 and antibodies [3] | neutralizing efficiency compared to other RBD binders [2] |
| --- | --- | --- | --- | --- |
| LGKGDFR [LGKGDFR peptide] | 11.69% | 12.6% | – | – |
| R7-02 (LGKGDFRK) | – | 1.9% | insignificant | significantly higher or comparable |
